Source: patent publication US12292445B2, “Methods of selecting subjects for treatment with metabolomic modulators” (priority 2018, dated 2025)

Legend:
Kcnal−/− mice = test: Kcnal seizure recordings (EEG); assay type: in vivo, mouse; details: CD-fed SPF Kcnal−/− mice, oral gavage 13.3 mg/kg every 12 hours
Method: EEGs were recorded from male and female Kcnal^−/− mice at 6-7 weeks of age. Kcnal^+/+ littermates were used as controls. There were no significant differences observed between males and females in seizure frequency and duration. Data presented include both sexes. Mice were anesthetized with isoflurane (5% induction, 2% maintenance) and eye ointment applied to each eye. Fur was removed along the head, and the area was cleaned with three alternative scrubs of chlorohexidine and 70% isopropanol. In a biosafety cabinet, mice were positioned in a stereotaxic apparatus (Harvard Biosciences) and 1 mg/kg lidocaine +1 mg/kg bupivacaine was applied locally along the incision site. […]
During EEG recordings, animals were freely moving and maintained on experimental diet. […] Simultaneous video recordings of behavioral seizures were correlated with EEG recordings and scored based on an adapted Racine scale and defined by 5 stages: 1) myoclonic jerk, 2) head stereotypy and facial clonus, 3) bilateral and alternating forelimb/hindlimb clonus, 4) rearing and falling, and 5) generalized tonic-clonic episodes. Data were analyzed by a blinded researcher using Neuroscore CNS Software (DSI). EEG signals were filtered using a 10 Hz high pass filter, and seizure events were detected by blinded manual scoring. […]

A. muciniphila = test: Cross-feeding in vitro assay, A. muciniphila growth; assay type: cell-based, Akkermansia muciniphila; details: A. muciniphila in CD agar exposed to P. merdae pre-treated with 500 uM GGsTop vs vehicle, 24 hours
Method: (§1) Cross-feeding was measured as previously described. A. muciniphila was embedded at 2×10^6 cfu/ml in 5 ml pre-reduced CD or KD-based liquid media supplemented with 1% agar at the bottom of an anaerobic tube, and P. merdae was overlaid above it at 6×10^6 cfu/ml in 5 ml pre-reduced M9 minimal media. Diet-based media were generated by aseptically suspending mouse KD vs. CD diets, described above, to 2 kcal/ml in M9 media. Pilot experiments confirmed no ectopic translocation of embedded A. muciniphila from the agar compartment into the above M9 liquid compartment. For each time point, aliquots were taken from the top and bottom compartments, plated in a dilution series in rich media (RCM for P. merdae and BHI +0.05% mucins for A. muciniphila), and colonies were counted. For GGsTop pre-treatment experiments, P. merdae was incubated with 500 uM GGsTop vs vehicle in RCM media at 37° C. for 2 hours and then washed with sterile media.

[1] = test system: gamma-glutamyltranspeptidase (GGT); test: GGT activity assay in cultured P. merdae; assay type: biochemical, Parabacteroides merdae; details: conventionally-cultured P. merdae, 500 uM GGsTop vs vehicle
Method: as §1
GGT activity was measured as previously described. For anaerobic cultures, bacteria were seeded at 3×10^5 cfu/ml in CD- and KD-based media. 1 ml bacterial suspension was pelleted and frozen at −80° C. for 1 hr. […] Absorbance at 405 nm denoting production of 3-carboxy-4-nitroaniline was measured every minute for 1 hr at 37° C. using an automated multimode plate reader (Biotek Synergy H1).

SPF Swiss Webster mice = test: 6-Hz psychomotor seizure assay; assay type: in vivo; details: SPF mice fed CD, oral gavage 13.3 mg/kg every 12 hours for 3 days, vs vehicle
Method: The 6-Hz test was conducted as previously described. […] All subsequent experimental cohorts contained male mice. One drop (˜50 ul) of 0.5% tetracaine hydrochloride ophthalmic solution was applied to the corneas of each mouse 10-15 min before stimulation. Corneal electrodes were coated with a thin layer of electrode gel (Parker Signagel). A constant-current current device (ECT Unit 57800, Ugo Basile) was used to deliver current at 3 sec duration, 0.2 ms pulse-width and 6 pulses/s frequency. CC50 (the intensity of current required to elicit seizures in 50% of the experimental group) was measured as a metric for seizure susceptibility. […] Locomotor behavior was recorded using Ethovision XT software (Noldus) and quantitative measures for falling, tail dorsiflexion (Straub tail), forelimb clonus, eye/vibrissae twitching and behavioral remission were scored manually. […] Latency to exploration (time elapsed from when an experimental mouse is released into the observation cage (after corneal stimulation) to its first lateral movement) was scored using Ethovision and manually with an electronic timer. […] Seizure threshold (CC50) was determined as previously described, using the average log interval of current steps per experimental group, where sample n is defined as the subset of animals displaying the less frequent seizure behavior. […]

[2] = test system: gamma-glutamyltranspeptidase (GGT); test: GGT activity assay, fecal samples exposed to GGsTop; assay type: biochemical, mouse; details: all fecal samples (SPF CD, SPF KD, AkkPb KD, AkkPb CD), 500 uM GGsTop
Method: GGT activity was measured as previously described. For anaerobic cultures, bacteria were seeded at 3×10^5 cfu/ml in CD- and KD-based media. 1 ml bacterial suspension was pelleted and frozen at −80° C. for 1 hr. Separate aliquots of the same suspension were plated in BHI mucin agar media or RCM and incubated at 37° C. in a Coy anaerobic chamber for later data normalization by bacterial cfu. Pellets were then resuspended in 250 ul lysis buffer (50 mM Tris-HCl with 1 ug/ml lysozyme) and incubated on ice for 30 min. For fecal samples, one pellet was weighed and homogenized in 1 ml lysis buffer. Bacterial and fecal suspensions were then sonicated (QSonica 125) and centrifuged at 12000×g for 10 min at 4° C. 20 ul supernatant was mixed with 180 ul substrate buffer (2.9 mM L-gamma-glutamyl-3-carboxy-4-nitroanilide (Gold Bio), 100 mM of glycylglycine (Sigma Aldrich), 100 mM Tris-HCl), and 500 uM GGsTop (if noted). Absorbance at 405 nm denoting production of 3-carboxy-4-nitroaniline was measured every minute for 1 hr at 37° C. using an automated multimode plate reader (Biotek Synergy H1).

P. merdae = test: Cross-feeding in vitro assay, P. merdae viability after GGsTop pre-treatment; assay type: cell-based, Parabacteroides merdae; details: 500 uM GGsTop pre-treatment, 2 hours, 37° C., pilot experiments
Method: as §1

## COP(=O)(CCC(N)C(=O)O)Oc1cccc(CC(=O)O)c1 (stereo not drawn) [GGsTop, 3-[[(3-amino-3-carboxypropyl)methoxyphosphinyl]oxy]benzeneacetic acid]
Kcnal−/− mice
  seizures per day (EEG): significant decrease in seizures per day
A. muciniphila
  A. muciniphila growth: increased growth
[1]
  GGT activity in P. merdae: ablated
SPF Swiss Webster mice
  6-Hz seizure threshold (CC50): increases in seizure thresholds toward levels seen in SPF KD mice
[2]
  fecal GGT activity signal: eliminated the detected signals
P. merdae
  P. merdae viability: no significant effect
